Laboratory results published in US8076520B2, “Phosphatidyl oligoglycerols” (Max-Planck-Gesellschaft zur Forderung der Wissenschaften …, priority 1996, dated 2011).

How the values were obtained:
[1] = Behaviour of PP-G-PGn lipids in water (additional properties); assay type: physicochemical; details: for behaviour when heated in water: heated above 40° C. in water; for stability of the lamellar phases: low temperatures; for time until transition from the isotropic to the anisotropic phase is recognizable: room temperature; for behaviour when the temperature falls: temperature below 40° C.
From the text: As the number of glycerol molecules increases, the number of free hydroxyl groups and thus also the polarity increases. […] Whereas the transition from the isotropic to the anisotropic phase at room temperature is recognizable after a few minutes with PP-G-PG2, it takes several hours for PP-G-PG3. The differences in polarity are also evident from the different retention factors (Rf) in the thin-layer chromatogram on silica gel.

[2] = in vivo
Description: In an animal experiment, liposomes were used which consisted of 40 mol % cholesterol, 10 mol % phosphatidylglycerol and 50% dipalmitoyl lecithin.
Liposomes of the same composition were prepared, in which the phosphatidylglycerol was replaced by a phosphatidylglycerol G2 of the invention. […] This linear relation was observed irrespective of the size of the liposomes. The same linear reduction in serum liposome concentration was found with 50 nm liposomes and with 150 nm liposomes. The linear reduction in blood liposome concentration was also observed for different starting concentrations.

time until transition from the isotropic to the anisotropic phase is recognizable [1] | solution formed in water ([1]; proportion of 5% in water) | half-life in serum [2] [h] | Substance | behaviour when heated in water [1] | stability of the lamellar phases [1] | behaviour when the temperature falls [1] | persistence characteristic (decrease of liposomes in serum with time) [2]
a few minutes |  |  | 1.2-dipalmitoyl-sn-glycero-3-phospho-G1-G2 [PP-G-PG2] | dissolve when heated above 40 °C in water and form superstructures | remain stable even at low temperatures (down to 4° C.) | lamellar structures with differently pronounced hystereses are formed | 
several hours |  |  | 1.2-dipalmitoyl-sn-glycero-3-phospho-G1-G2-G3 [PP-G-PG3] | dissolve when heated above 40 °C in water and form superstructures | remain stable even at low temperatures (down to 4° C.) | lamellar structures with differently pronounced hystereses are formed | 
 | clear isotropic solution |  | 1.2-dipalmitoyl-sn-glycero-3-phospho-G1-G2-G3-G4 [PP-G-PG4] |  |  |  | 
 |  | 4 | phosphatidylglycerol |  |  |  | a rapid decrease to start with, followed by a slower decrease
